Test [1] deals with cGMP-inhibited 3',5'-cyclic phosphodiesterase 3B (Homo sapiens, UniProt Q13370). As to the kind of experiment: PDE3B Enzyme Inhibition. How it is done:
The commercially available 3H-cAMP Scintillation Proximity Assay (SPA, Perkin Elmer) system was used for enzyme inhibition studies. For the determination of the in vitro effect of test substances on the PDE3B reactions 2 μl of the respective test compound solution in DMSO (serial dilutions) were placed in wells of microtiter plates (Isoplate-96/200W; Perkin Elmer). 50 μl of a dilution of PDE3B cell extract from Sf9 cells overexpressing human full length PDE3B (SB Drug Discovery, UK) in buffer A (50 mM Tris/HCl pH 7.5, 8.3 mM MgCl2, 1.7 mM EDTA, 0.2% BSA) was added. The dilution of the PDE3B cell extract was chosen such that the reaction kinetics was linear and less than 70% of the substrate was consumed (typical dilution 1:6000). The reaction was started by addition of 50 μl (0.025 μCi) of 1:2000 in buffer A w/o BSA diluted substrate [8-3H] adenosine 3′,5′-cyclic phosphate (1 μCi/μl; Perkin Elmer). After incubation at room temperature for 60 min, the reaction was stopped by addition of 25 μl of a suspension containing 18 mg/ml yttrium scintillation proximity beads (Perkin Elmer) in water. The microtiter plates were sealed and measured in a Microbeta scintillation counter (PerkinElmer Wallac). IC50 values were determined from sigmoidal curves by plotting percentage PDE3B activity vs log compound concentration.

For test [2], the target named is cGMP-inhibited 3',5'-cyclic phosphodiesterase 3A (Homo sapiens, UniProt Q14432). The experiment in a line: PDE3A Enzyme Inhibition. How it is done: The commercially available 3H-cAMP Scintillation Proximity Assay (SPA, Perkin Elmer) system was used for enzyme inhibition studies. For the determination of the in vitro effect of test substances on the PDE3A reactions 2 μl of the respective test compound solution in DMSO (serial dilutions) were is placed in wells of microtiter plates (Isoplate-96/200W; Perkin Elmer). 50 μl of a dilution of PDE3A cell extract from Sf9 cells overexpressing human full length PDE3A (SB Drug Discovery, UK) in buffer A (50 mM Tris/HCl pH 7.5, 8.3 mM MgCl2, 1.7 mM EDTA, 0.2% BSA) was added. The dilution of the PDE3A cell extract was chosen such that the reaction kinetics was linear and less than 70% of the substrate was consumed (typical dilution 1:5000). The reaction was started by addition of 50 μl (0.025 μCi) of 1:2000 in buffer A w/o BSA diluted substrate [8-3H] adenosine 3′,5′-cyclic phosphate (1 μCi/μl; Perkin Elmer). After incubation at room temperature for 60 min, the reaction was stopped by addition of 25 μl of a suspension containing 18 mg/ml yttrium scintillation proximity beads (Perkin Elmer) in water. The microtiter plates were sealed and measured in a Microbeta scintillation counter (PerkinElmer Wallac). IC50 values were determined from sigmoidal curves by plotting percentage PDE3A activity vs log compound concentration.
Sequence of cGMP-inhibited 3',5'-cyclic phosphodiesterase 3A (Q14432 whole entry): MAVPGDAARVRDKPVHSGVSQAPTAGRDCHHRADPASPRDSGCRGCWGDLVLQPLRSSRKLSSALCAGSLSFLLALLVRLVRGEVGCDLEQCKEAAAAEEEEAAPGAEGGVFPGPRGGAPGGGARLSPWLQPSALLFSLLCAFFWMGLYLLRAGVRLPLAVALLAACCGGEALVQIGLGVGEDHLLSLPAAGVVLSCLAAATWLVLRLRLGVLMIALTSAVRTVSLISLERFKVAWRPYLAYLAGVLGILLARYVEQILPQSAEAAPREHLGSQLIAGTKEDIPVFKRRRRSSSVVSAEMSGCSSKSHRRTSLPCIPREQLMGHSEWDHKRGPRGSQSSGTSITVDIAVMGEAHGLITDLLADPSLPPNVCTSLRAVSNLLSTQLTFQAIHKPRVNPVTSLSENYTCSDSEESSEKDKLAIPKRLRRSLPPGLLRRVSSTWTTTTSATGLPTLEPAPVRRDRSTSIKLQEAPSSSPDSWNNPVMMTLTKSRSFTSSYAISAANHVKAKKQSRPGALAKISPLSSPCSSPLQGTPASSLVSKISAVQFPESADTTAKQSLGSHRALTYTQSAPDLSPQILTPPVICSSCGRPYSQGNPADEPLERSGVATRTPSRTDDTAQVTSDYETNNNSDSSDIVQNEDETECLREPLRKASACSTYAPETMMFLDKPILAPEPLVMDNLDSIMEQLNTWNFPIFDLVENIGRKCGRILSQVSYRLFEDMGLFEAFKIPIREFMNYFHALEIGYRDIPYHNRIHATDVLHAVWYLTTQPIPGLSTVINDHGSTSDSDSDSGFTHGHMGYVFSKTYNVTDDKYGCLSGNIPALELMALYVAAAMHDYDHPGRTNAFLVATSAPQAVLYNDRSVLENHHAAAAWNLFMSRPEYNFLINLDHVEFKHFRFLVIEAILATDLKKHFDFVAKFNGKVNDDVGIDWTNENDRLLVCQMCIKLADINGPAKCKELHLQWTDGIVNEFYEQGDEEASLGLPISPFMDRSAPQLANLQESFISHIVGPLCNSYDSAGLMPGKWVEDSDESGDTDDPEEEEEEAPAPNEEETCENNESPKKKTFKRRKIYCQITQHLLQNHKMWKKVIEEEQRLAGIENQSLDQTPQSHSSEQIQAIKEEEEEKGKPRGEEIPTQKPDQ

Sequence of cGMP-inhibited 3',5'-cyclic phosphodiesterase 3B (Q13370 whole entry): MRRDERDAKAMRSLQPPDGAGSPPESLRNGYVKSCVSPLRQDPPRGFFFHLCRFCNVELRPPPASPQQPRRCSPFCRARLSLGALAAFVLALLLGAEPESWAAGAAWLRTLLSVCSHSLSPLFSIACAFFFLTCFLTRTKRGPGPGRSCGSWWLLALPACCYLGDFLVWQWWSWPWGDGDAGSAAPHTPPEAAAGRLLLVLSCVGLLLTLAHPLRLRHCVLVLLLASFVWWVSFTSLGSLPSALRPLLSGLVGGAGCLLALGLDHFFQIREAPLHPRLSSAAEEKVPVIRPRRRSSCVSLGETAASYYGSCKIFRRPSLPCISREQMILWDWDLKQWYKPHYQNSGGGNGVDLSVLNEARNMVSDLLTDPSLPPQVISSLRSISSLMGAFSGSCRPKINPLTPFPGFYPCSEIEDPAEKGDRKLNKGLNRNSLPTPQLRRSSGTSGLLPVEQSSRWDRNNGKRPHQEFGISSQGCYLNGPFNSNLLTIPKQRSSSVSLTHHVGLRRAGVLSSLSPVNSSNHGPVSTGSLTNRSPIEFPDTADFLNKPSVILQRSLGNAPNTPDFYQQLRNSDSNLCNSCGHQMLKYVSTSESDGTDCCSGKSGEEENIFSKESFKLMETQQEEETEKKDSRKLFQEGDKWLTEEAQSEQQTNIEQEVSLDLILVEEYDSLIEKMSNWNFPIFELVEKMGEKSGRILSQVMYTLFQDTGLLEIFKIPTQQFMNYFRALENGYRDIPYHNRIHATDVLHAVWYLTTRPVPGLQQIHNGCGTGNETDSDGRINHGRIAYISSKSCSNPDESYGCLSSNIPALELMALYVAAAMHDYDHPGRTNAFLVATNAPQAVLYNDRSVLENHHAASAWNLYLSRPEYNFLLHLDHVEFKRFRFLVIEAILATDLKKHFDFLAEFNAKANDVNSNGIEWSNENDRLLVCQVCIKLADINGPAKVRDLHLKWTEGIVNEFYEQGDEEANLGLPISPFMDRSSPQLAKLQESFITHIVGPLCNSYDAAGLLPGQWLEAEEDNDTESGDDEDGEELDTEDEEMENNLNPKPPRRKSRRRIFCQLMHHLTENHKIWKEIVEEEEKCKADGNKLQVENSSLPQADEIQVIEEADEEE

On to `O=C1CCC(c2ccc(-c3ccccc3C(F)(F)F)c(F)c2)=NN1` [US11897867, Example 61], for which the results for the IC50 in test [1] and in test [2] were 110 nM and 440 nM, respectively. On to `O=C1CCC(c2ccc(N3CCOCC3)cc2)=NN1` [US11897867, Example 123], for which the IC50 (as a rule, the concentration at which inhibition is half-maximal) in test [2] is more than 1000 nM.

Values taken from BindingDB's records for patent US11897867 (Bayer Aktiengesellschaft, 2024).
